The values below come from patent US20250074891A1 (Anaxis Pharma Pty Ltd., priority 2021, published 2025).

Where only a bound is given, the exact number is not on record here.

What all share (settings): Table 35
Experiment [1] deals with RIP1 (Homo sapiens (Human), UniProt Q13546). Description: KINOMEscan binding assay, RIP1.
Experiment [2] deals with RIP3 (Homo sapiens (Human), UniProt Q9Y572). Kind of experiment: KINOMEscan binding assay, RIP3. As to the method: (§1) Kinase assays. For most assays, kinase-tagged T7 phage strains were grown in parallel in 24-well blocks in an E. coli host derived from the BL21 strain. E. coli were grown to log-phase and infected with T7 phage from a frozen stock (multiplicity of infection=0.4) and incubated with shaking at 32° C. until lysis (90-150 minutes).
Chain of RIP3 (Q9Y572 whole entry): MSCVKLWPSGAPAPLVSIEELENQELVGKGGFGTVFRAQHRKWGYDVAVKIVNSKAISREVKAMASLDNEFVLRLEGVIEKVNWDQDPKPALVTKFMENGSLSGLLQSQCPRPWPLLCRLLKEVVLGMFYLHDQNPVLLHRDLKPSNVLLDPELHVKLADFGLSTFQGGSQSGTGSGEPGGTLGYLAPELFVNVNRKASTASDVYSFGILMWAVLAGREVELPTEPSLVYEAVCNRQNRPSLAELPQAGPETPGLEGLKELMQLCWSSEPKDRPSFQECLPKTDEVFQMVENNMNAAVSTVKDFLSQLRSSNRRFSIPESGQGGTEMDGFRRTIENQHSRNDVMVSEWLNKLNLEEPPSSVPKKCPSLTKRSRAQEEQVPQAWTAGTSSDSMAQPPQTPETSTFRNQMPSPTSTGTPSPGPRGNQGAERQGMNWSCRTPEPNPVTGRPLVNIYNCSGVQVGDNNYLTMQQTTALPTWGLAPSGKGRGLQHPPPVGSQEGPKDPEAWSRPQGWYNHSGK
(§2) The Hill Slope was set to −1.

Experiment [3] deals with MLKL (full length) (Homo sapiens (Human), UniProt Q8NB16). Description: KINOMEscan binding assay, MLKL (full length). Here is the method:
as §1, §2

Chain of MLKL (full length) (Q8NB16 whole entry): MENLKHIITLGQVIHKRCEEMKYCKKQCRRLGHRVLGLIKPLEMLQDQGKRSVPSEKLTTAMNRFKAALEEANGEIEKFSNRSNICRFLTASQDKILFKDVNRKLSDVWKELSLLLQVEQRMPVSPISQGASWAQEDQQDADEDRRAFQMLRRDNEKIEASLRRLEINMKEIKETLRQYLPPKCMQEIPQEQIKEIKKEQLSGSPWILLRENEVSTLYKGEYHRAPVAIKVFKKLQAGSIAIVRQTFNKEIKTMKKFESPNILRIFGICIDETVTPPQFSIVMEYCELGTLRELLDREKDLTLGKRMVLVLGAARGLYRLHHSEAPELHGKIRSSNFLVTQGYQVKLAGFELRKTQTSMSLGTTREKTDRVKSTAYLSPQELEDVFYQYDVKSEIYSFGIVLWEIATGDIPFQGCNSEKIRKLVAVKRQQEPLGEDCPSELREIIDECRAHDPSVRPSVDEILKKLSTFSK
Chain of RIP1 (Q13546 whole entry): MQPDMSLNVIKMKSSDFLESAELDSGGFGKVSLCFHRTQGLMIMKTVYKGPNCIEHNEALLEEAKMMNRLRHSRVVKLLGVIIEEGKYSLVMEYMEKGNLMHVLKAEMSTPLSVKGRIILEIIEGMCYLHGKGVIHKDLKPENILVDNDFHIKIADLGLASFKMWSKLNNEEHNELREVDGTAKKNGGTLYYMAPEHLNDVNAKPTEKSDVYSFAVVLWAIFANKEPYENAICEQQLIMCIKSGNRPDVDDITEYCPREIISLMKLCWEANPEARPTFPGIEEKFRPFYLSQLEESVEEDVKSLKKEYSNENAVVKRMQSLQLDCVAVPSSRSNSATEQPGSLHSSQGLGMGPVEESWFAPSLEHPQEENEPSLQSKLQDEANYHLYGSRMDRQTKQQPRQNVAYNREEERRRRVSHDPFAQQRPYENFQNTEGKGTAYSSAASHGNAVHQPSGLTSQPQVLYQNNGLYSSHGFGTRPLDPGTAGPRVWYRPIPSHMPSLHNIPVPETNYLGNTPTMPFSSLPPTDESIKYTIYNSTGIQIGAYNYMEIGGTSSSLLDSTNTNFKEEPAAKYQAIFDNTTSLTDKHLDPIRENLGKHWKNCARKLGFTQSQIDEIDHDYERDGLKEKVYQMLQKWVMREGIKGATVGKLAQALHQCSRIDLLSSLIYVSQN

What is called Kd is the free concentration of one partner at which half of the binding sites on the other are occupied at equilibrium, for simple one-to-one binding. Low values mean a tighter complex, high ones a looser complex. Regarding `NC(=O)c1c(-c2ccc(NS(=O)(=O)CC(F)(F)F)c(OCc3ccc(Cl)cn3)c2)n[nH]c1Nc1cnccn1` [Compound 262, 3-{3-[(5-chloropyridin-2-yl)methoxy]-4-(2,2,2-trifluoroethane-sulfonamido)phenyl}-5-[(pyrazin-2-yl)amino]-1H-pyrazole-4-carboxamide], the Kd in experiment [1] is greater than 30 µM; in experiment [2], greater than 30 µM; in experiment [3], less than 0.01 µM.
Turning to `Cc1cnc(Nc2[nH]nc(-c3ccc(NS(=O)(=O)CC(F)(F)F)c(O[C@@H](C)c4ccc(F)cc4)c3)c2C(N)=O)cn1` [Compound 264, 3-{3-[(1S)-1-(4-fluorophenyl)ethoxy]-4-(2,2,2-trifluoroethanesulfonamido)phenyl}-5-[(5-methylpyrazin-2-yl)amino]-1H-pyrazole-4-carboxamide], the Kd was greater than 30 µM in experiment [1], greater than 30 µM in experiment [2] and less than 0.01 µM in experiment [3].
Regarding `NC(=O)c1c(-c2ccc(NS(=O)(=O)CC(F)(F)F)c(OC(c3ccc(F)cc3)C3CCC3)c2)n[nH]c1Nc1cnccn1` (stereo not drawn) [Compound 266, 3-{3-[cyclobutyl(4-fluorophenyl)methoxy]-4-(2,2,2-trifluoroethanesulfonamido)phenyl}-5-[(pyrazin-2-yl)amino]-1H-pyrazole-4-carboxamide], the Kd in experiment [1] is greater than 30 µM; in experiment [2], greater than 30 µM; in experiment [3] it was less than 0.01 µM.
As to `C[C@H](Oc1cc(-c2n[nH]c(Nc3cnccn3)c2C(N)=O)ccc1NS(=O)(=O)CC(F)(F)F)c1ccccn1` [Compound 267, 5-[(pyrazin-2-yl)amino]-3-{3-[(1S)-1-(pyridin-2-yl)ethoxy]-4-(2,2,2-trifluoroethanesulfonamido)phenyl]-1H-pyrazole-4-carboxamide], the equilibrium dissociation constant (Kd) in experiment [1] was greater than 30 µM; in experiment [2], greater than 30 µM; in experiment [3], less than 0.01 µM.
Turning to `NC(=O)c1c(-c2ccc(NS(=O)(=O)CC(F)(F)F)cc2)n[nH]c1Nc1ccccn1` [Compound 268, 5-[(pyridin-2-yl)amino]-3-[4-(2,2,2-trifluoroethanesulfonamido)phenyl]-1H-pyrazole-4-carboxamide], the Kd is greater than 30 µM in experiment [1], greater than 30 µM in experiment [2] and less than 0.01 µM in experiment [3].
With `NC(=O)c1c(-c2ccc(NS(=O)(=O)CC(F)(F)F)c(OCc3ccc(Cl)cc3)c2)n[nH]c1Nc1ccccn1` [Compound 269, 3-{3-[(4-chlorophenyl)methoxy]-4-(2,2,2-trifluoroethanesulfonamido)phenyl}-5-[(pyridin-2-yl)amino]-1H-pyrazole-4-carboxamide], the Kd was greater than 30 µM in experiment [1], greater than 30 µM in experiment [2] and less than 0.01 µM in experiment [3].
`Cc1nn(C)cc1Nc1[nH]nc(-c2ccc(NS(=O)(=O)C(F)F)c(O[C@@H](C)c3ccc(F)cc3)c2)c1C(N)=O` [Compound 270, (S)-3-(4-((difluoromethyl)sulfonamido)-3-(1-(4-fluorophenyl)ethoxy)phenyl)-5-((1,3-dimethyl-1H-pyrazol-4-yl)amino)-1H-pyrazole-4-carboxamide]: the results for the Kd in experiment [1], in experiment [2] and in experiment [3] were greater than 30 µM, greater than 30 µM and less than 0.01 µM, respectively.
`C[C@@H](Oc1cc(-c2n[nH]c(Nc3cnccn3)c2C(N)=O)ccc1NS(=O)(=O)C(F)F)c1ccc(F)cc1` [Compound 271, (R)-3-(4-((difluoro-methyl)sulfon-amido)-3-(1-(4-fluorophenyl)ethoxy)phenyl)-5-(pyrazin-2-ylamino)-1H-pyrazole-4-carboxamide]: the Kd was greater than 30 µM in experiment [1], greater than 30 µM in experiment [2] and less than 0.01 µM in experiment [3].
For the compound `CCc1cc(Nc2[nH]nc(-c3ccc(NS(=O)(=O)C(F)F)c(O[C@@H](C)c4ccc(F)cc4)c3)c2C(N)=O)no1` [Compound 274, (S)-3-(4-((difluoromethyl)sulfonamido)-3-(1-(4-fluorophenyl)ethoxy)phenyl)-5-((5-ethylisoxazol-3-yl)amino)-1H-pyrazole-4-carboxamide], the figures for the Kd in experiment [1], in experiment [2] and in experiment [3] were greater than 30 µM, greater than 30 µM and less than 0.01 µM, respectively.
On to `NC(=O)c1c(-c2ccc(NS(=O)(=O)C(F)F)c(OCc3nccs3)c2)n[nH]c1Nc1cnccn1` [Compound 275, 3-(4-((difluoro-methyl)sulfon-amido)-3-(thiazol-2-ylmethoxy)phenyl)-5-(pyrazin-2-ylamino)-1H-pyrazole-4-carboxamide], for which the Kd is greater than 30 µM in experiment [1], greater than 30 µM in experiment [2] and less than 0.01 µM in experiment [3].
In the case of `C[C@H](Oc1cc(-c2n[nH]c(Nc3cc(C4(C)CC4)on3)c2C(N)=O)ccc1NS(=O)(=O)C(F)F)c1ccc(F)cc1` [Compound 276, (S)-3-(4-((difluoromethyl)sulfonamido)-3-(1-(4-fluorophenyl)ethoxy)phenyl)-5-((5-(1-methylcyclopropyl)isoxazol-3-yl)amino)-1H-pyrazole-4-carboxamide], the Kd in experiment [1] is greater than 30 µM; in experiment [2], greater than 30 µM; in experiment [3] it was less than 0.01 µM.
Take `C[C@H](Oc1cc(-c2n[nH]c(Nc3cc(C(F)(F)F)n(C)n3)c2C(N)=O)ccc1NS(=O)(=O)C(F)F)c1ccc(F)cc1` [Compound 277, (S)-3-(4-((difluoromethyl)sulfonamido)-3-(1-(4-fluorophenyl)ethoxy)phenyl)-5-((1-methyl-5-(trifluoromethyl)-1H-pyrazol-3-yl)amino)-1H-pyrazole-4-carboxamide]: the results for the Kd in experiment [1], in experiment [2] and in experiment [3] were greater than 30 µM, greater than 30 µM and less than 0.01 µM, respectively.
On to `C[C@H](Oc1cc(-c2n[nH]c(Nc3ccc(C4CCOCC4)cn3)c2C(N)=O)ccc1NS(=O)(=O)C(F)F)c1ccc(F)cc1` [Compound 278], for which the Kd is greater than 30 µM in experiment [1], greater than 30 µM in experiment [2] and less than 0.01 µM in experiment [3].
As to `C[C@H](Oc1cc(-c2n[nH]c(Nc3cc(C4CCC4)on3)c2C(N)=O)ccc1NS(=O)(=O)C(F)F)c1ccc(F)cc1` [Compound 281, (S)-5-((5-cyclobutylisoxazol-3-yl)amino)-3-(4-((difluoromethyl)sulfonamido)-3-(1-(4-fluorophenyl)ethoxy)phenyl)-1H-pyrazole-4-carboxamide], the Kd in experiment [1] was greater than 30 µM; in experiment [2], greater than 30 µM; in experiment [3], less than 0.01 µM.
As to `C[C@H](Oc1cc(-c2n[nH]c(Nc3cc(C(C)(C)C)on3)c2C(N)=O)ccc1NS(=O)(=O)C(F)F)c1ccc(F)cc1` [Compound 282, (S)-5-((5-(tert-butyl)isoxazol-3-yl)amino)-3-(4-((difluoromethyl)sulfonamido)-3-(1-(4-fluorophenyl)ethoxy)phenyl)-1H-pyrazole-4-carboxamide], the results for the Kd in experiment [1], in experiment [2] and in experiment [3] were greater than 30 µM, greater than 30 µM and less than 0.01 µM, respectively.
As to `C[C@H](Oc1cc(-c2n[nH]c(Nc3ncn(C)n3)c2C(N)=O)ccc1NS(=O)(=O)C(F)F)c1ccc(F)cc1` [Compound 283, (S)-3-(4-((difluoromethyl)sulfonamido)-3-(1-(4-fluorophenyl)ethoxy)phenyl)-5-((1-methyl-1H-1,2,4-triazol-3-yl)amino)-1H-pyrazole-4-carboxamide], the Kd in experiment [1] was greater than 30 µM; in experiment [2], greater than 30 µM; in experiment [3] it was less than 0.01 µM.
On to `Cc1nc(Nc2[nH]nc(-c3ccc(NS(=O)(=O)C(F)F)c(O[C@@H](C)c4ccc(F)cc4)c3)c2C(N)=O)sc1C` [Compound 284, (S)-3-(4-((difluoromethyl)sulfonamido)-3-(1-(4-fluorophenyl)ethoxy)phenyl)-5-((4,5-dimethylthiazol-2-yl)amino)-1H-pyrazole-4-carboxamide], for which the Kd in experiment [1] is greater than 30 µM; in experiment [2] it was greater than 30 µM; in experiment [3], less than 0.01 µM.
As for `Cc1cn(C)nc1Nc1[nH]nc(-c2ccc(NS(=O)(=O)C(F)F)c(O[C@@H](C)c3ccc(F)cc3)c2)c1C(N)=O` [Compound 286, (S)-3-(4-((difluoromethyl)sulfonamido)-3-(1-(4-fluorophenyl)ethoxy)phenyl)-5-((1,4-dimethyl-1H-pyrazol-3-yl)amino)-1H-pyrazole-4-carboxamide], the Kd in experiment [1] is greater than 30 µM; in experiment [2], greater than 30 µM; in experiment [3], less than 0.01 µM.
As to `C[C@H](Oc1cc(-c2n[nH]c(Nc3cc(C4CCOCC4)ccn3)c2C(N)=O)ccc1NS(=O)(=O)C(F)F)c1ccc(F)cc1` [Compound 287, (S)-3-(4-((difluoromethyl)sulfonamido)-3-(1-(4-fluorophenyl)ethoxy)phenyl)-5-((4-(tetrahydro-2H-pyran-4-yl)pyridin-2-yl)amino)-1H-pyrazole-4-carboxamide], the Kd in experiment [1] was greater than 30 µM; in experiment [2], greater than 30 µM; in experiment [3], less than 0.01 µM.
Consider `COCC(C)(C)c1cc(Nc2[nH]nc(-c3ccc(NS(=O)(=O)C(F)F)c(O[C@@H](C)c4ccc(F)cc4)c3)c2C(N)=O)no1` [Compound 288, (S)-3-(4-((difluoromethyl)sulfonamido)-3-(1-(4-fluorophenyl)ethoxy)phenyl)-5-((5-(1-methoxy-2-methylpropan-2-yl)isoxazol-3-yl)amino)-1H-pyrazole-4-carboxamide], for which the Kd is greater than 30 µM in experiment [1], greater than 30 µM in experiment [2] and less than 0.01 µM in experiment [3].
Consider `C[C@H](Oc1cc(-c2n[nH]c(Nc3cc(C4(C(F)(F)F)CC4)on3)c2C(N)=O)ccc1NS(=O)(=O)C(F)F)c1ccc(F)cc1` [Compound 289, (S)-3-(4-((difluoromethyl)sulfonamido)-3-(1-(4-fluorophenyl)ethoxy)phenyl)-5-((5-(1-(trifluoromethyl)cyclopropyl)isoxazol-3-yl)amino)-1H-pyrazole-4-carboxamide], for which the values for the Kd in experiment [1], in experiment [2] and in experiment [3] were greater than 30 µM, greater than 30 µM and less than 0.01 µM, respectively.
